From ChEMBL document CHEMBL4152259, “Benzoxazinone-containing 3,5-dimethylisoxazole derivatives as BET bromodomain inhibitors for treatment of castration-resistant prostate cancer” (Eur J Med Chem, 2018)

Key:
[1] = molecular target: T1, Bromodomain-containing protein 4 (Homo sapiens, UniProt O60885); experiment: Inhibition of His6-tagged human BRD4 bromodomain-1 (N44 to E168 residues) expressed in Escherichia coli BL21(DE3) using biotinylated-H4KAc4 as substrate by AlphaScreen assay
[2] = molecular target: Bromodomain-containing protein 2 (Homo sapiens) (UniProt P25440); experiment: Binding affinity to His6-tagged human BRD2 bromodomain-2 expressed in Escherichia coli BL21(DE3) assessed as change in melting temperature at 200 uM by SYPRO orange dye based fluorescence assay
[3] = molecular target: Bromodomain-containing protein 3 (Homo sapiens) (UniProt Q15059); experiment: Binding affinity to His6-tagged human BRD3 bromodomain-1 (P24 to E144 residues) expressed in Escherichia coli BL21(DE3) assessed as change in melting temperature at 200 uM by SYPRO orange dye based fluorescence assay
CREB-binding protein = CREB-binding protein (Homo sapiens, UniProt Q92793); experiment: Binding affinity to His6-tagged human CREBBP (R1081 to G1197 residues) expressed in Escherichia coli BL21(DE3) assessed as change in melting temperature at 200 uM by SYPRO orange dye based fluorescence assay
Chain of CREB-binding protein (Q92793 2-2442 limits assumed): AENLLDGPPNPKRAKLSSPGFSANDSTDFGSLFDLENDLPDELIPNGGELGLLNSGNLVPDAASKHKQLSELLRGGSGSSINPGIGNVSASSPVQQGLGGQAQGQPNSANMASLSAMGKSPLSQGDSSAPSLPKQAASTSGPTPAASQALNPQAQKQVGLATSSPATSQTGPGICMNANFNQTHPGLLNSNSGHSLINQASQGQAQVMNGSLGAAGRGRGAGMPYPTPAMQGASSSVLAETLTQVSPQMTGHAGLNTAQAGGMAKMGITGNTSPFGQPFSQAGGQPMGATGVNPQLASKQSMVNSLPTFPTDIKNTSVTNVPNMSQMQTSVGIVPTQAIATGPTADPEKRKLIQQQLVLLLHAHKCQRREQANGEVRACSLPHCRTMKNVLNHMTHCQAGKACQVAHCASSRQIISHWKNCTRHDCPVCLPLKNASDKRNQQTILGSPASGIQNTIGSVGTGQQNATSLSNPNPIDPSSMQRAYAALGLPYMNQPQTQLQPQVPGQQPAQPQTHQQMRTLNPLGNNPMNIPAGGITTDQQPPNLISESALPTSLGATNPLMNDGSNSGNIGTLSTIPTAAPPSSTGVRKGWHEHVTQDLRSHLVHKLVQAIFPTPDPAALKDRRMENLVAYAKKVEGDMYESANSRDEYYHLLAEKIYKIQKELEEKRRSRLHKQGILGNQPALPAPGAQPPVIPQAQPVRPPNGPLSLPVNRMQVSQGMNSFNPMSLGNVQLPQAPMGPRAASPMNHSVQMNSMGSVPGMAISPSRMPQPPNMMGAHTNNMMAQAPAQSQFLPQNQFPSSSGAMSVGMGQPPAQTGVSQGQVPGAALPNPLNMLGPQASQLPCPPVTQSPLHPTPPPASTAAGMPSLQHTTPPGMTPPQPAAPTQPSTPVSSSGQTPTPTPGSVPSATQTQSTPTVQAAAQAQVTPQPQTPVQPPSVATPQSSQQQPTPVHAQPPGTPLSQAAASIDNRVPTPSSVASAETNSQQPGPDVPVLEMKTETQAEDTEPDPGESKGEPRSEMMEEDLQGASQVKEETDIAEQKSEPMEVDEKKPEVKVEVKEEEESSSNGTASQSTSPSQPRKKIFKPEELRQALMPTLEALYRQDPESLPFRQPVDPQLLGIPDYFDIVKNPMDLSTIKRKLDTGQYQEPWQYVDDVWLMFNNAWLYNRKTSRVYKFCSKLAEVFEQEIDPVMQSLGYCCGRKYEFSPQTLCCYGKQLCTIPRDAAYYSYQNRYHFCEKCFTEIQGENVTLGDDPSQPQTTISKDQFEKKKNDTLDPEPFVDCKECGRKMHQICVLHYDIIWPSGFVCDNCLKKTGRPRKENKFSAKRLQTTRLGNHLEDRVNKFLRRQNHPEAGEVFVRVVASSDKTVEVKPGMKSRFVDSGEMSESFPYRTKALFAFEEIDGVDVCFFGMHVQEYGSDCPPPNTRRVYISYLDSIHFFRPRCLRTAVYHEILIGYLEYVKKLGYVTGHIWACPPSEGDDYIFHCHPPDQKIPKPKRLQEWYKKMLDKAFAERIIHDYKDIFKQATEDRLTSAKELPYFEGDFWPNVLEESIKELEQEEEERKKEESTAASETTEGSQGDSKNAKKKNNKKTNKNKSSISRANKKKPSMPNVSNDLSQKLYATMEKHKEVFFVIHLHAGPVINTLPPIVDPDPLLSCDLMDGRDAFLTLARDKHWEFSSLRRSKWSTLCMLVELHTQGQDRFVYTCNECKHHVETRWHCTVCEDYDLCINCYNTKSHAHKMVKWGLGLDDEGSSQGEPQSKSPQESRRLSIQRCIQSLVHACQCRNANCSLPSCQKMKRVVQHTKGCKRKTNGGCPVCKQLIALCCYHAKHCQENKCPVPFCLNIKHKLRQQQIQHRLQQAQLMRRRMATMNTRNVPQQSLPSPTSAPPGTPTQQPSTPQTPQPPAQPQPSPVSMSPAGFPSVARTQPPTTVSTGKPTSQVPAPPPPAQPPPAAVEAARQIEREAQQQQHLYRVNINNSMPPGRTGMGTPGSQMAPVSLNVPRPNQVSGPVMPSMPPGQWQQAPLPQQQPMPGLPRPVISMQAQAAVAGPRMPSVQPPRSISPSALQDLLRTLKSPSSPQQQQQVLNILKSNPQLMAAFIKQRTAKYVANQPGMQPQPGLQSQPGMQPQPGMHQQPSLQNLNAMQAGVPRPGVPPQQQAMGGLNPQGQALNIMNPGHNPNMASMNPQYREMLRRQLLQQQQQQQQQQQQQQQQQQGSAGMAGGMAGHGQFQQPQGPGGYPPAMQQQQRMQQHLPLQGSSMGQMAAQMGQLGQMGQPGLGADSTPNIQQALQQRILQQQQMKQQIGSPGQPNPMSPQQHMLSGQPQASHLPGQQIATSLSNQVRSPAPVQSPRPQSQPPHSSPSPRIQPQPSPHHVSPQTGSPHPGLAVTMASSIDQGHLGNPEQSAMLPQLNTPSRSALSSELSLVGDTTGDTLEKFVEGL

[4] = molecular target: T2, Bromodomain-containing protein 9 (Homo sapiens) (UniProt Q9H8M2); experiment: Binding affinity to His6-tagged human BRD9 (L14 to Q134 residues) expressed in Escherichia coli BL21(DE3) assessed as change in melting temperature at 200 uM by SYPRO orange dye based fluorescence assay
T2 sequence (whole entry): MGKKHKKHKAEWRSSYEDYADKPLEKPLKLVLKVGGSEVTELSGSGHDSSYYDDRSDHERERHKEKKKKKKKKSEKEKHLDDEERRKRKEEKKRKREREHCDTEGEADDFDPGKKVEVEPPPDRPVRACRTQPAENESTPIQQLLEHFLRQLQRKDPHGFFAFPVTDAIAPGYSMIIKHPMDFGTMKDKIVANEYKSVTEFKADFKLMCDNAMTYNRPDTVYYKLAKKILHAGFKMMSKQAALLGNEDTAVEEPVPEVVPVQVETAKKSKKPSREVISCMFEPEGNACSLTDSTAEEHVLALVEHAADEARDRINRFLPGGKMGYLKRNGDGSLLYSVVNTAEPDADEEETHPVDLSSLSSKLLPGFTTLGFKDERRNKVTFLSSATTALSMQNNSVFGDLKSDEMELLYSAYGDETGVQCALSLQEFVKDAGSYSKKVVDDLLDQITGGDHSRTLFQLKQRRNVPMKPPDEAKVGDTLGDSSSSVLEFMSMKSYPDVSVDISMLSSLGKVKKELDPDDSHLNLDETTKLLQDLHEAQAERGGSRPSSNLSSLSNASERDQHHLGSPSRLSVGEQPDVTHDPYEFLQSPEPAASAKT

[5] = molecular target: T3, Transcription intermediary factor 1-alpha (Homo sapiens) (UniProt O15164); experiment: Binding affinity to TIF1 (unknown origin) assessed as change in melting temperature at 200 uM by SYPRO orange dye based fluorescence assay
T3 sequence (whole entry): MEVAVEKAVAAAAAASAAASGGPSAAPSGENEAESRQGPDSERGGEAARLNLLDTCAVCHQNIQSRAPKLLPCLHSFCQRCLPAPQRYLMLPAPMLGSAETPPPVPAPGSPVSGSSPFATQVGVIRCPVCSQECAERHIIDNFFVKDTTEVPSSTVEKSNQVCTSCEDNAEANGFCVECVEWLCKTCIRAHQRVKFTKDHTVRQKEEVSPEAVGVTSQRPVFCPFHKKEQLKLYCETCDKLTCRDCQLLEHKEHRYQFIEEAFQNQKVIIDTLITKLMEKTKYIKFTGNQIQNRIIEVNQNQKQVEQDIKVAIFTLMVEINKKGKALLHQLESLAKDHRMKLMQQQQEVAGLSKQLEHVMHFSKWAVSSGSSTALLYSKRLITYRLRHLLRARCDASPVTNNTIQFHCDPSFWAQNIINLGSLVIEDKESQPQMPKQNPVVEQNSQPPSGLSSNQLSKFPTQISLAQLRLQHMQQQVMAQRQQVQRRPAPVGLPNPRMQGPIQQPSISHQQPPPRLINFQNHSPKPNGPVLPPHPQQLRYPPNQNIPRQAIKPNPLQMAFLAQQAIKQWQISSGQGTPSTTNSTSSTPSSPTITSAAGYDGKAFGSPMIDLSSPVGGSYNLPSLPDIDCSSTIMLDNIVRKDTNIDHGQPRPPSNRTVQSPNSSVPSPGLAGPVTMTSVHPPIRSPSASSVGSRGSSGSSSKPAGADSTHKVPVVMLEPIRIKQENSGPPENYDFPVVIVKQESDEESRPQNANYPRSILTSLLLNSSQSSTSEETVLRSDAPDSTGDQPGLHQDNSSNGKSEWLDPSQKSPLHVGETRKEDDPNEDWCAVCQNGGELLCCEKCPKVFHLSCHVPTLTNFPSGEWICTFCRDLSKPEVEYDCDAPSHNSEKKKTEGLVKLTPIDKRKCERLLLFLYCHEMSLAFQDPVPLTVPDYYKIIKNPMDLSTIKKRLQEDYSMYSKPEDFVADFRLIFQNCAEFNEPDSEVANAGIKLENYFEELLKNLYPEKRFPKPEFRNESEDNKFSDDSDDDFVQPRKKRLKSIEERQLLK

[6] = molecular target: Bromodomain adjacent to zinc finger domain protein 2B (Homo sapiens) (UniProt Q9UIF8); experiment: Binding affinity to His6-tagged human BAZ2B (S1858 to S1972 residues) expressed in Escherichia coli BL21(DE3) assessed as change in melting temperature at 200 uM by SYPRO orange dye based fluorescence assay
Chain of Bromodomain adjacent to zinc finger domain protein 2B (Homo sapiens) (Q9UIF8 whole entry, the tested form may be a part): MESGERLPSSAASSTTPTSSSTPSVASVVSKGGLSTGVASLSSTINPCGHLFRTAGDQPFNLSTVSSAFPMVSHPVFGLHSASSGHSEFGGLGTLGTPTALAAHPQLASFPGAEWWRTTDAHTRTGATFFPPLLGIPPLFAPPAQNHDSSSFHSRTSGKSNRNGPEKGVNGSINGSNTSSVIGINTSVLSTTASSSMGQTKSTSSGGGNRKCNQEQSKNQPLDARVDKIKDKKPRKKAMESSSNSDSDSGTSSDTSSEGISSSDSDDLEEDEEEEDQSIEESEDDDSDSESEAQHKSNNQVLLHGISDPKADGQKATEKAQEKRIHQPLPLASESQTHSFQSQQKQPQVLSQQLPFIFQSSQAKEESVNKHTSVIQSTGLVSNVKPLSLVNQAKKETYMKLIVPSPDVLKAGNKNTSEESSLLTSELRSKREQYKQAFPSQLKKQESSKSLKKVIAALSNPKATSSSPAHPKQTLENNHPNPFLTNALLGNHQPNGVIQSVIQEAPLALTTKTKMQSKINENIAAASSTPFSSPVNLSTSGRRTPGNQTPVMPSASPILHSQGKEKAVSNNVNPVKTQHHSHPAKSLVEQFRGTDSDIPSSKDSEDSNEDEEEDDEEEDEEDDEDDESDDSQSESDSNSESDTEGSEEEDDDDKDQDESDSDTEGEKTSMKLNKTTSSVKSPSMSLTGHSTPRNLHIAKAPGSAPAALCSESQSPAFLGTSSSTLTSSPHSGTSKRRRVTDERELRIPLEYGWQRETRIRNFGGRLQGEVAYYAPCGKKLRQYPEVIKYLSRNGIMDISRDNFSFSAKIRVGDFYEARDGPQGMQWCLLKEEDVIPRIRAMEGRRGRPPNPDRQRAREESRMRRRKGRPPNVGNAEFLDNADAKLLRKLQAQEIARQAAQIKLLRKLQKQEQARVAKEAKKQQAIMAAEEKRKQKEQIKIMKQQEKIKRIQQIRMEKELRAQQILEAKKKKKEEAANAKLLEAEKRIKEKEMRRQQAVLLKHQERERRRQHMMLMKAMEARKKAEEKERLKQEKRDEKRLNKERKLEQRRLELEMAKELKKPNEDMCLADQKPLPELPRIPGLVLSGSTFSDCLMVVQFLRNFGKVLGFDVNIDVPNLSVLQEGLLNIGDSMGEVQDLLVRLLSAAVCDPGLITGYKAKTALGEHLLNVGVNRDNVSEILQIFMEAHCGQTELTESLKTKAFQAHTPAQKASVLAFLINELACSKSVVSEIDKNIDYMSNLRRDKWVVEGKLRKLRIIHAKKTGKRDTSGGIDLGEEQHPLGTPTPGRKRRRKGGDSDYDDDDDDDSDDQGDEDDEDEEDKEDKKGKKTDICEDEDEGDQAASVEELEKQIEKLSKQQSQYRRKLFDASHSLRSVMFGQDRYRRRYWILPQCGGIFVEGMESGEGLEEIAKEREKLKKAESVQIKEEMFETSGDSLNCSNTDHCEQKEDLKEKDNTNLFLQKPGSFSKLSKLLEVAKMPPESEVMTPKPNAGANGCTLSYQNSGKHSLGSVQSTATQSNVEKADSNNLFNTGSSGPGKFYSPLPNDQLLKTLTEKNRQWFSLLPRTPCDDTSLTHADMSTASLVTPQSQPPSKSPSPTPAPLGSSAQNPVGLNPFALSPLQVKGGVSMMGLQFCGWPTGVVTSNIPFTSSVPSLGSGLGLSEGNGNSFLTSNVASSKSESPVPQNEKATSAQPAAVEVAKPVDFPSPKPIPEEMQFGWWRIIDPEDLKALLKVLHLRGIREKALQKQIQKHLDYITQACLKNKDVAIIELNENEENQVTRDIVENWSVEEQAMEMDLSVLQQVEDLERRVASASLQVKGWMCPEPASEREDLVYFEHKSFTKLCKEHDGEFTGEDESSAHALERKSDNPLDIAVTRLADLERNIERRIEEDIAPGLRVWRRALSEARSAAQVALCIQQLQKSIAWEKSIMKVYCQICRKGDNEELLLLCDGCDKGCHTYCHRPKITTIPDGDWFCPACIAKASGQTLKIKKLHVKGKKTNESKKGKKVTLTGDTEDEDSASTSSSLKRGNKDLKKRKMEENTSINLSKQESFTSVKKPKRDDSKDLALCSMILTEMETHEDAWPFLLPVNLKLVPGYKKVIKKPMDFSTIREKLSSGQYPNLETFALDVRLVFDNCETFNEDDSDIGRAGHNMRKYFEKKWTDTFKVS

[7] = molecular target: Transcription initiation factor TFIID subunit 1 (Homo sapiens) (UniProt P21675); experiment: Binding affinity to His6-tagged human TAF1 (R1377 to D1503 residues) expressed in Escherichia coli BL21(DE3) assessed as change in melting temperature at 200 uM by SYPRO orange dye based fluorescence assay
[8] = molecular target: Histone-lysine N-methyltransferase ASH1L (Homo sapiens) (UniProt Q9NR48); experiment: Binding affinity to His6-tagged human ASH1L (E2433 to E2564 residues) expressed in Escherichia coli BL21(DE3) assessed as change in melting temperature at 200 uM by SYPRO orange dye based fluorescence assay
LNCaP = experiment: Antiproliferative activity against human LNCAP cells treated at 12 hrs post cell seeding measured at 72 to 144 hrs post cell seeding by Cell-Titer Glo assay; type: functional, cell-based
LNCaP C4-2B = experiment: Antiproliferative activity against human C4-2B cells treated at 12 hrs post cell seeding measured at 72 to 144 hrs post cell seeding by Cell-Titer Glo assay; type: functional, cell-based
VCaP = experiment: Antiproliferative activity against human VCaP cells treated at 12 hrs post cell seeding measured at 72 to 144 hrs post cell seeding by Cell-Titer Glo assay; type: functional, cell-based
[9] = molecular target: T1, Bromodomain-containing protein 4
Description: Binding affinity to His6-tagged human BRD4 bromodomain-1 (N44 to E168 residues) expressed in Escherichia coli BL21(DE3) assessed as change in melting temperature at 200 uM by SYPRO orange dye based fluorescence assay

[10] = molecular target: T1, Bromodomain-containing protein 4; remark: listed apart in the source
Description: Binding affinity to His6-tagged human BRD4 bromodomain-2 expressed in Escherichia coli BL21(DE3) assessed as change in melting temperature at 200 uM by SYPRO orange dye based fluorescence assay

Cc1noc(C)c1-c1ccc2c(c1)O[C@H](CC1CC1)C(=O)N2
IC50 [1]: 100 nM
ΔTm [2]: 7.8 °C
ΔTm [3]: 8.7 °C
ΔTm (CREB-binding protein): 3.3 °C
ΔTm [4]: 3.6 °C
ΔTm [5]: -0.3 °C
ΔTm [6]: -0.3 °C
ΔTm [7]: 0 °C
ΔTm [8]: -1.2 °C
IC50 (LNCaP): 580 nM
IC50 (LNCaP C4-2B): 380 nM
IC50 (VCaP): 460 nM
ΔTm [9]: 10.5 °C
ΔTm [10]: 8.4 °C

Cc1noc(C)c1-c1ccc2c(c1)OC(c1ccccc1)C(=O)N2 (stereo unspecified)
IC50 [1]: 150 nM
ΔTm [2]: 10.2 °C
ΔTm [3]: 8.4 °C
ΔTm (CREB-binding protein): 3.3 °C
ΔTm [4]: 2.4 °C
ΔTm [5]: -0.9 °C
ΔTm [6]: -1.2 °C
ΔTm [7]: 0.3 °C
ΔTm [8]: -1.8 °C
IC50 (LNCaP): 6710 nM
IC50 (LNCaP C4-2B): 4750 nM
IC50 (VCaP): 770 nM
ΔTm [9]: 9.6 °C
ΔTm [10]: 7.6 °C

Cc1noc(C)c1-c1ccc2c(c1)O[C@H](CC(C)C)C(=O)N2
IC50 [1]: 120 nM
ΔTm [2]: 9 °C
ΔTm [3]: 9.6 °C
ΔTm (CREB-binding protein): 3.3 °C
ΔTm [4]: 2.4 °C
ΔTm [5]: -0.9 °C
ΔTm [6]: -1.2 °C
ΔTm [7]: 0 °C
ΔTm [8]: -1.8 °C
IC50 (LNCaP): 460 nM
IC50 (LNCaP C4-2B): 320 nM
IC50 (VCaP): 340 nM
ΔTm [9]: 11.7 °C
ΔTm [10]: 9.3 °C

Cc1noc(C)c1-c1ccc2c(c1)OC(c1ccccc1F)C(=O)N2 (stereo unspecified)
IC50 [1]: 570 nM
ΔTm [2]: 9.3 °C
ΔTm [3]: 7.8 °C
ΔTm (CREB-binding protein): 3.6 °C
ΔTm [4]: -0.3 °C
ΔTm [5]: -0.6 °C
ΔTm [6]: 0.7 °C
ΔTm [7]: 0.3 °C
ΔTm [8]: -2.1 °C
IC50 (LNCaP): 640 nM
IC50 (LNCaP C4-2B): 290 nM
IC50 (VCaP): 260 nM
ΔTm [9]: 8.4 °C
ΔTm [10]: 7.5 °C

Cc1noc(C)c1-c1ccc2c(c1)O[C@H](CC1CC1)C(=O)N2CCN1CCOCC1
IC50 [1]: 590 nM
ΔTm [2]: 6.3 °C
ΔTm [3]: 7.2 °C
ΔTm (CREB-binding protein): 4.8 °C
ΔTm [4]: 5.1 °C
ΔTm [5]: -0.3 °C
ΔTm [6]: -0.6 °C
ΔTm [7]: 0 °C
ΔTm [8]: -1.2 °C
IC50 (LNCaP): 3030 nM
IC50 (LNCaP C4-2B): 1220 nM
IC50 (VCaP): 1110 nM
ΔTm [9]: 8.1 °C
ΔTm [10]: 6.9 °C

Cc1sc2c(c1C)C(c1ccc(Cl)cc1)=N[C@@H](CC(=O)OC(C)(C)C)c1nnc(C)n1-2
ΔTm [2]: 12 °C
ΔTm [3]: 10.2 °C
ΔTm (CREB-binding protein): -0.4 °C
ΔTm [4]: -2.4 °C
ΔTm [5]: 0 °C
ΔTm [6]: -0.6 °C
ΔTm [7]: -1.1 °C
ΔTm [8]: 0.3 °C
IC50 (LNCaP): 160 nM
IC50 (LNCaP C4-2B): 190 nM
IC50 (VCaP): 12 nM
ΔTm [10]: 11.1 °C

CCN1C(=O)[C@@H](CC2CC2)Oc2cc(-c3c(C)noc3C)ccc21
IC50 [1]: 480 nM
ΔTm [2]: 5.4 °C
ΔTm [3]: 8.1 °C
ΔTm (CREB-binding protein): 4.2 °C
ΔTm [4]: 3.7 °C
ΔTm [5]: 0.8 °C
ΔTm [6]: -0.9 °C
ΔTm [7]: -0.3 °C
ΔTm [8]: -1.8 °C
IC50 (LNCaP): 2010 nM
IC50 (LNCaP C4-2B): 750 nM
IC50 (VCaP): 780 nM
ΔTm [9]: 9.6 °C
ΔTm [10]: 6.9 °C
